ChEMBL document CHEMBL3351515, “α-Hexylcinnamaldehyde inhibits the genotoxicity of environmental pollutants in the bacterial reverse mutation assay” (2014)

What was measured:
[1] = test system: Salmonella typhimurium; assay: Antimutagenic activity against sodium azide-induced revertant colonies in Salmonella typhimurium TA100 assessed as number of revertant colonies measured post-treatment at 9 uM (reference value: 1909 +/- 29.7) in absence of mammalian S9 fraction; format: functional, Salmonella enterica subsp. enterica serovar Typhimurium
[2] = test system: Escherichia coli; assay: Antimutagenic activity against methyl methansulfonate-induced revertant colonies in Escherichia coli WP2uvrA assessed as number of revertant colonies measured pretreatment at 9 uM (reference value: 466.7 +/- 40.4) in absence of mammalian S9 fraction; format: functional
[3] = test system: Salmonella typhimurium; assay: Antimutagenic activity against 2-aminoanthracene-induced revertant colonies in Salmonella typhimurium TA100 assessed as number of revertant colonies measured cotreatment at 90 uM (reference value: 457.9 +/- 16.74) in presence of mammalian S9 fraction; format: functional, Salmonella enterica subsp. enterica serovar Typhimurium
[4] = test system: Salmonella typhimurium; assay: Antimutagenic activity against 4-nitroquinoline N-oxide-induced revertant colonies in Salmonella typhimurium TA98 assessed as inhibition of mutagenicity measured at 900 uM; format: functional, Salmonella enterica subsp. enterica serovar Typhimurium; conditions: Salmonella enterica
[5] = test system: Salmonella typhimurium; assay: Antimutagenic activity against 2-aminoanthracene-induced revertant colonies in Salmonella typhimurium TA100 assessed as number of revertant colonies measured pretreatment at 90 uM (reference value: 481.3 +/- 5.3) in presence of mammalian S9 fraction; format: functional, Salmonella enterica subsp. enterica serovar Typhimurium
[6] = test system: Salmonella typhimurium; assay: Antimutagenic activity against sodium azide-induced revertant colonies in Salmonella typhimurium TA100 assessed as number of revertant colonies measured cotreatment at 9 uM (reference value: 1588 +/- 55.6) in absence of mammalian S9 fraction; format: functional, Salmonella enterica subsp. enterica serovar Typhimurium
[7] = test system: Salmonella typhimurium; assay: Antimutagenic activity against 1-nitropyrene-induced revertant colonies in Salmonella typhimurium TA98NR assessed as inhibition of mutagenicity measured at 90 to 180 uM; format: functional, Salmonella enterica subsp. enterica serovar Typhimurium
[8] = test system: Escherichia coli; assay: Antimutagenic activity against methyl methansulfonate-induced revertant colonies in Escherichia coli WP2uvrA assessed as number of revertant colonies measured post-treatment at 90 uM (reference value: 726.7 +/- 12.7) in absence of mammalian S9 fraction; format: functional
[9] = test system: Salmonella typhimurium; assay: Antimutagenic activity against sodium azide-induced revertant colonies in Salmonella typhimurium TA100 assessed as number of revertant colonies measured post-treatment at 90 uM (reference value: 1909 +/- 29.7) in absence of mammalian S9 fraction; format: functional, Salmonella enterica subsp. enterica serovar Typhimurium
[10] = test system: Escherichia coli; assay: Antimutagenic activity against 2-aminoanthracene-induced revertant colonies in Escherichia coli WP2uvrA assessed as number of revertant colonies measured cotreatment at 900 uM (reference value: 366 +/- 10.3) in presence of mammalian S9 fraction; format: functional
[11] = test system: Salmonella typhimurium; assay: Antimutagenic activity against 1,8-dinitropyrene-induced revertant colonies in Salmonella typhimurium TA98 assessed as inhibition of mutagenicity measured at 90 to 180 uM; format: functional, Salmonella enterica subsp. enterica serovar Typhimurium
[12] = test system: Escherichia coli; assay: Antimutagenic activity against methyl methansulfonate-induced revertant colonies in Escherichia coli WP2uvrA assessed as number of revertant colonies measured cotreatment at 9 uM (reference value: 485.3 +/- 17.5) in absence of mammalian S9 fraction; format: functional
[13] = test system: Salmonella typhimurium; assay: Antimutagenic activity against sodium azide-induced revertant colonies in Salmonella typhimurium TA100 assessed as number of revertant colonies measured pretreatment at 900 uM (reference value: 1968 +/- 46.9) in absence of mammalian S9 fraction; format: functional, Salmonella enterica subsp. enterica serovar Typhimurium
[14] = test system: Salmonella typhimurium; assay: Antimutagenic activity against 1-nitropyrene-induced revertant colonies in Salmonella typhimurium TA98 1,8 DNP assessed as inhibition of mutagenicity measured at 90 to 180 uM; format: functional, Salmonella enterica subsp. enterica serovar Typhimurium
[15] = test system: Salmonella typhimurium; assay: Antimutagenic activity against 1,8-dinitropyrene-induced revertant colonies in Salmonella typhimurium TA98 assessed as inhibition of mutagenicity measured at 9 to 18 uM; format: functional, Salmonella enterica subsp. enterica serovar Typhimurium
[16] = test system: Salmonella typhimurium; assay: Antimutagenic activity against sodium azide-induced revertant colonies in Salmonella typhimurium TA100 assessed as number of revertant colonies measured pretreatment at 9 uM (reference value: 1968 +/- 46.9) in absence of mammalian S9 fraction; format: functional, Salmonella enterica subsp. enterica serovar Typhimurium
[17] = test system: Salmonella typhimurium; assay: Antimutagenic activity against 1-nitropyrene-induced revertant colonies in Salmonella typhimurium TA98NR assessed as inhibition of mutagenicity measured at 900 uM; format: functional, Salmonella enterica subsp. enterica serovar Typhimurium; conditions: Salmonella enterica
[18] = test system: Escherichia coli; assay: Antimutagenic activity against methyl methansulfonate-induced revertant colonies in Escherichia coli WP2uvrA assessed as number of revertant colonies measured cotreatment at 90 uM (reference value: 485.3 +/- 17.5) in absence of mammalian S9 fraction; format: functional
[19] = test system: Escherichia coli; assay: Antimutagenic activity against methyl methansulfonate-induced revertant colonies in Escherichia coli WP2uvrA assessed as number of revertant colonies measured post-treatment at 180 uM (reference value: 726.7 +/- 12.7) in absence of mammalian S9 fraction; format: functional
[20] = test system: Salmonella typhimurium; assay: Antimutagenic activity against 4-nitroquinoline N-oxide-induced revertant colonies in Salmonella typhimurium TA98 assessed as inhibition of mutagenicity measured at 9 to 18 uM; format: functional, Salmonella enterica subsp. enterica serovar Typhimurium
[21] = test system: Salmonella typhimurium; assay: Antimutagenic activity against 2-aminoanthracene-induced revertant colonies in Salmonella typhimurium TA100 assessed as number of revertant colonies measured cotreatment at 180 uM (reference value: 457.9 +/- 16.74) in presence of mammalian S9 fraction; format: functional, Salmonella enterica subsp. enterica serovar Typhimurium
[22] = test system: Salmonella typhimurium; assay: Antimutagenic activity against 1-nitropyrene-induced revertant colonies in Salmonella typhimurium TA98 assessed as inhibition of mutagenicity measured at 9 to 18 uM; format: functional, Salmonella enterica subsp. enterica serovar Typhimurium
[23] = test system: Escherichia coli; assay: Antimutagenic activity against methyl methansulfonate-induced revertant colonies in Escherichia coli WP2uvrA assessed as number of revertant colonies measured cotreatment at 900 uM (reference value: 485.3 +/- 17.5) in absence of mammalian S9 fraction; format: functional
[24] = test system: Salmonella typhimurium; assay: Antimutagenic activity against sodium azide-induced revertant colonies in Salmonella typhimurium TA100 assessed as number of revertant colonies measured cotreatment at 18 uM (reference value: 1588 +/- 55.6) in absence of mammalian S9 fraction; format: functional, Salmonella enterica subsp. enterica serovar Typhimurium
[25] = test system: Escherichia coli; assay: Antimutagenic activity against methyl methansulfonate-induced revertant colonies in Escherichia coli WP2uvrA assessed as number of revertant colonies measured cotreatment at 180 uM (reference value: 485.3 +/- 17.5) in absence of mammalian S9 fraction; format: functional
[26] = test system: Salmonella typhimurium; assay: Antimutagenic activity against sodium azide-induced revertant colonies in Salmonella typhimurium TA100 assessed as number of revertant colonies measured post-treatment at 900 uM (reference value: 1909 +/- 29.7) in absence of mammalian S9 fraction; format: functional, Salmonella enterica subsp. enterica serovar Typhimurium
[27] = test system: Salmonella typhimurium; assay: Antimutagenic activity against 1,8-dinitropyrene-induced revertant colonies in Salmonella typhimurium TA98 assessed as inhibition of mutagenicity measured at 900 uM; format: functional, Salmonella enterica subsp. enterica serovar Typhimurium; conditions: Salmonella enterica
[28] = test system: Salmonella typhimurium; assay: Antimutagenic activity against 1-nitropyrene-induced revertant colonies in Salmonella typhimurium TA98NR assessed as inhibition of mutagenicity measured at 9 to 18 uM; format: functional, Salmonella enterica subsp. enterica serovar Typhimurium
[29] = test system: Salmonella typhimurium; assay: Antimutagenic activity against 2-aminoanthracene-induced revertant colonies in Salmonella typhimurium TA100 assessed as number of revertant colonies measured pretreatment at 900 uM (reference value: 481.3 +/- 5.3) in presence of mammalian S9 fraction; format: functional, Salmonella enterica subsp. enterica serovar Typhimurium
[30] = test system: Salmonella typhimurium; assay: Antimutagenic activity against 2-aminoanthracene-induced revertant colonies in Salmonella typhimurium TA100 assessed as number of revertant colonies measured pretreatment at 180 uM (reference value: 481.3 +/- 5.3) in presence of mammalian S9 fraction; format: functional, Salmonella enterica subsp. enterica serovar Typhimurium
[31] = test system: Escherichia coli; assay: Antimutagenic activity against 2-aminoanthracene-induced revertant colonies in Escherichia coli WP2uvrA assessed as number of revertant colonies measured post-treatment at 90 uM (reference value: 308 +/- 4) in presence of mammalian S9 fraction; format: functional

`CCCCCC/C(C=O)=C\c1ccccc1` was tested, and the Activity [1] was 1888, the Activity [2] was 458.7 and the Activity [3] was 408.5. The inhibition at 900 µM [4] was > 40%, the Activity [5] was 454.7 and the Activity [6] was 1519. For the same molecule, the “inhibition (INH)” value [7] was 25%, the Activity [8] was 517.3 and the Activity [9] was 1803. The Activity [10] was 293.5, the “inhibition (INH)” value [11] was 25% and the Activity [12] was 484. The Activity [13] was 1652, the “inhibition (INH)” value [14] was 25% and the “inhibition (INH)” value [15] was <25%. The Activity [16] was 1877, the inhibition at 900 µM [17] was > 40% and the Activity [18] was 466.7. For the same molecule, the Activity [19] was 488, the “inhibition (INH)” value [20] was <25% and the Activity [21] was 404. For the same molecule, the “inhibition (INH)” value [22] was <25%, the Activity [23] was 402.7 and the Activity [24] was 1501. For the same molecule, the Activity [25] was 448, the Activity [26] was 1671 and the inhibition at 900 µM [27] was > 40%. The “inhibition (INH)” value [28] was <25%, the Activity [29] was 365.3 and the Activity [30] was 384. It also gave an Activity [31] of 308.7.
